One assay addresses CRBN-DDB1 (Homo sapiens (Human), UniProt Q96SW2). The experiment in a line: CRBN HTRF assay (Cy5-Thalidomide probe displacement). The assay is classed as binding. To be noted: CRBN-DDB1 2.5 nM, Cy5-Thalidomide 100 nM, 30 min; Ki from geometric mean IC50 by Cheng-Prusoff. A digest of the protocol: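 HTRF displacement of Cy5-thalidomide probe (100 nM) from His-CRBN-DDB1 (2.5 nM) with anti-His terbium cryptate, in HEPES/NaCl/TCEP/EDTA/Tween20 buffer. 10-point 1:3 compound series, 30 min at ambient temperature; signal normalised to DMSO and lenalidomide controls, IC50 fitted and Ki derived by Cheng-Prusoff.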
On the technique in general: In TR-FRET formats the signal depends on donor and acceptor labels being close together.

A further assay concerns the target CDK2 (Homo sapiens (Human), UniProt P24941). The experiment in a line: CDK2 NanoBiT assay (HiBiT-tagged CDK2 degradation). The assay is classed as cell-based. The conditions noted are these: HEK293, HEK293 clonal line, C-terminal HiBiT tag on CDK2, LgBiT; 24 hours. A digest of the protocol:
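HEK293 line with CRISPR knock-in C-terminal HiBiT-tagged CDK2 and stable LgBiT, preincubated 16 h with live-cell substrate, then compound-treated 24 h at 37° C, 5% CO2 (30 μM stock). Luminescence normalized to plate negative and positive controls; EC50 from 3-parameter logistic fit, Hill slope 1.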

The structures appear in SMILES notation. pKi: −log10 of the molar value. Bounds are passed on as bounds.

CRBN-DDB1, sequence (Q96SW2 whole entry): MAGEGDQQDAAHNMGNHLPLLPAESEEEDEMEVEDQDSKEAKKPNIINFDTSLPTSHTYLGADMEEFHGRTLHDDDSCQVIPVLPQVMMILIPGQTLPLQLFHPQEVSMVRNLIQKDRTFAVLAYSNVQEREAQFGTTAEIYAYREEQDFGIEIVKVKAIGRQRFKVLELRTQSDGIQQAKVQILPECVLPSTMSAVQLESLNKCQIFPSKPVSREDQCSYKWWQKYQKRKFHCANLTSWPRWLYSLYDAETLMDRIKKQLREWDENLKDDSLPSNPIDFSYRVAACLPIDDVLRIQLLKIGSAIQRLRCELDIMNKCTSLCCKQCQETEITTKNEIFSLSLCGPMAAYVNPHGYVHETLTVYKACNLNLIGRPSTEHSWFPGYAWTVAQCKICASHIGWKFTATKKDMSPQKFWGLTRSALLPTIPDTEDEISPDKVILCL
CRBN-DDB1, sequence (Q16531 whole entry partner): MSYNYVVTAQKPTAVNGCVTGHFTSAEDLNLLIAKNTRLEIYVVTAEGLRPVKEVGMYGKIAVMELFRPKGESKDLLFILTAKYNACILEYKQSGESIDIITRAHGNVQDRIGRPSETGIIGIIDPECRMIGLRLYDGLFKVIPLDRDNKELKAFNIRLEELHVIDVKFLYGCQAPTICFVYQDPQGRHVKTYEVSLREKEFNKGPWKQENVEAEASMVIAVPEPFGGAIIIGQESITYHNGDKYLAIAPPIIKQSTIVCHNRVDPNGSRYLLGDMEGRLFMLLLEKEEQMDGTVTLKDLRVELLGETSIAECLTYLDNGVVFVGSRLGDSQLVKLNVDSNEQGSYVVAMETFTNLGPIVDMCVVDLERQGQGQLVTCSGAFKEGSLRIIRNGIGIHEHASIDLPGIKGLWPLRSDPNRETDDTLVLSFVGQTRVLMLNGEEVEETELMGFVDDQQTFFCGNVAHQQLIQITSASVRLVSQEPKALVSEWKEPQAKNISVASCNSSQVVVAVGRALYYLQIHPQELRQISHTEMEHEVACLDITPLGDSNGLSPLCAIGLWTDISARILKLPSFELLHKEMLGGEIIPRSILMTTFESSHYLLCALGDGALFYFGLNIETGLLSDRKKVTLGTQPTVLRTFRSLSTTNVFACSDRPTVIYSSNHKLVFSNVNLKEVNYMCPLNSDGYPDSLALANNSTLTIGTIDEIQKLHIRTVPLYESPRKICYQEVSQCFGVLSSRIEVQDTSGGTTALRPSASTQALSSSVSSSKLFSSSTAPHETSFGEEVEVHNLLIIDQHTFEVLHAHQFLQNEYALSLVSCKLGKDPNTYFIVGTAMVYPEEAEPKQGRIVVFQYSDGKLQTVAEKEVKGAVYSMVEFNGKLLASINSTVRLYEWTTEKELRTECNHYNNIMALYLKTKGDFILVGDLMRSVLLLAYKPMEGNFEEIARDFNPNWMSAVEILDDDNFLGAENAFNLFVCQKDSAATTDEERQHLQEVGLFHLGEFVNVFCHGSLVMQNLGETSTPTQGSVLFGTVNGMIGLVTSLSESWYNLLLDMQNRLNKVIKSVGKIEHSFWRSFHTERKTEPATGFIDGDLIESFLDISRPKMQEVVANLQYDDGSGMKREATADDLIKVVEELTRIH

`Cc1cc(N2CC(NC(=O)OC3CN(C(=O)N(C)C4CC4)C3)C2)cc(C)c1C1CCC(=O)NC1=O` (centres unmarked) [Compound 86, 1-(cyclopropyl(methyl)carbamoyl)azetidin-3-yl (1-(4-(2,6-dioxopiperidin-3-yl)-3,5-dimethylphenyl)azetidin-3-yl)carbamate] gave a pKi at CRBN-DDB1 of 6.00 to 7.00. The compound also registered a Dmax at CDK2 of 10 to 50%.
At CRBN-DDB1, `Cc1cc(N2CC(NC(=O)OC3CN(C(=O)N(C)C4CC4)C3)C2)cc(Cl)c1C1CCC(=O)NC1=O` (centres unmarked) [Compound 87, 1-(cyclopropyl(methyl)carbamoyl)azetidin-3-yl (1-(3-chloro-4-(2,6-dioxopiperidin-3-yl)-5-methylphenyl)azetidin-3-yl)carbamate] had a pKi of 6.00 to 7.00. Also, at CDK2, the Dmax fell in the range of 50 to 80%.
`CN(C(=O)N1CCC(OC(=O)NC2CN(c3cc(F)c(C4CCC(=O)NC4=O)c(F)c3)C2)CC1)C1CC1` (centres unmarked) [Compound 88, 1-(cyclopropyl(methyl)carbamoyl)piperidin-4-yl (1-(4-(2,6-dioxopiperidin-3-yl)-3,5-difluorophenyl)azetidin-3-yl)carbamate] had a negative logarithm of the Ki (pKi) on CRBN-DDB1 of at least 7.00. The same compound had a Dmax at CDK2 of 50 to 80%.
`N#Cc1cc(C2CCC(=O)NC2=O)ccc1N1CC(Nc2nnc(C3CC4(CCC4)C3)o2)C1` (centres unmarked) [Compound 89, 5-(2,6-dioxopiperidin-3-yl)-2-(3-((5-(spiro[3.3]heptan-2-yl)-1,3,4-oxadiazol-2-yl)amino)azetidin-1-yl)benzonitrile] gave a pKi at CRBN-DDB1 below 6.00. Also, the maximal degradation (Dmax) on CDK2 fell in the range of 50 to 80%.
In turn, `COc1c(N2CC(Nc3nnc(-c4ccc(OC(F)(F)F)cc4)o3)C2)ccc(C2CCC(=O)NC2=O)c1F` (centres unmarked) [Compound 90, 3-(2-fluoro-3-methoxy-4-(3-((5-(4-(trifluoromethoxy)phenyl)-1,3,4-oxadiazol-2-yl)amino)azetidin-1-yl)phenyl)piperidine-2,6-dione] showed a pKi on CRBN-DDB1 of 6.00 to 7.00. The compound further yielded a Dmax at CDK2 above 80%.
`COc1c(N2CC(Nc3nnc(C4CC5(CCC5)C4)o3)C2)ccc(C2CCC(=O)NC2=O)c1Cl` (centres unmarked) [Compound 91, 3-(2-chloro-3-methoxy-4-(3-((5-(spiro[3.3]heptan-2-yl)-1,3,4-oxadiazol-2-yl)amino)azetidin-1-yl)phenyl)piperidine-2,6-dione] gave a pKi on CRBN-DDB1 of 6.00 to 7.00. In addition, at CDK2, the Dmax is above 80%.
For `O=C1CCC(c2c(F)cc(N3C[C@H](Nc4nnc(C5CC6(CCC6)C5)o4)CC3=O)cc2F)C(=O)N1` (stereo partly drawn) [Compound 92, 3-(2,6-difluoro-4-((R)-2-oxo-4-((5-(spiro[3.3]heptan-2-yl)-1,3,4-oxadiazol-2-yl)amino)pyrrolidin-1-yl)phenyl)piperidine-2,6-dione] the same measures were at least 7.00 and 50 to 80%.
Compound `O=C1CCC(c2c(F)cc(N3CC(Nc4nnc(-c5ccc(Cl)cc5)o4)C3)cc2F)C(=O)N1` (centres unmarked) [Compound 93, 3-(4-(3-((5-(4-chlorophenyl)-1,3,4-oxadiazol-2-yl)amino)azetidin-1-yl)-2,6-difluorophenyl)piperidine-2,6-dione] had a pKi on CRBN-DDB1 of 6.00 to 7.00. The compound also registered a Dmax on CDK2 above 80%.
At CRBN-DDB1, `COc1c(N2CC(Nc3nnc(C4CC5(CCC5)C4)o3)C2)ccc(C2CCC(=O)NC2=O)c1F` (centres unmarked) [Compound 94, 3-(2-fluoro-3-methoxy-4-(3-((5-(spiro[3.3]heptan-2-yl)-1,3,4-oxadiazol-2-yl)amino)azetidin-1-yl)phenyl)piperidine-2,6-dione] had a pKi of 6.00 to 7.00. On CDK2, this compound displayed a maximal degradation (Dmax) above 80%.
For `N#Cc1ccc(-c2nnc(NC3CN(c4cc(F)c(C5CCC(=O)NC5=O)c(F)c4)C3)o2)cc1` (centres unmarked) [Compound 95, 4-(5-((1-(4-(2,6-dioxopiperidin-3-yl)-3,5-difluorophenyl)azetidin-3-yl)amino)-1,3,4-oxadiazol-2-yl)benzonitrile] the same measures were at least 7.00 and above 80%.
Regarding `Cc1ccccc1-c1nnc(NC2CN(c3cc(F)c(C4CCC(=O)NC4=O)c(F)c3)C2)o1` (centres unmarked) [Compound 96, 3-(2,6-difluoro-4-(3-((5-(o-tolyl)-1,3,4-oxadiazol-2-yl)amino)azetidin-1-yl)phenyl)piperidine-2,6-dione], the negative logarithm of the Ki (pKi) on CRBN-DDB1 was at least 7.00. The compound also had a maximal degradation (Dmax) at CDK2 above 80%.
For the compound `Cc1cccc(-c2nnc(NC3CN(c4cc(F)c(C5CCC(=O)NC5=O)c(F)c4)C3)o2)c1` (centres unmarked) [Compound 97, 3-(2,6-difluoro-4-(3-((5-(m-tolyl)-1,3,4-oxadiazol-2-yl)amino)azetidin-1-yl)phenyl)piperidine-2,6-dione], the pKi on CRBN-DDB1 is 6.00 to 7.00. The compound also displayed a Dmax on CDK2 above 80%.
The corresponding values for `COc1ccc(-c2nnc(NC3CN(c4cc(F)c(C5CCC(=O)NC5=O)c(F)c4)C3)o2)cc1` (centres unmarked) [Compound 98, 3-(2,6-difluoro-4-(3-((5-(4-methoxyphenyl)-1,3,4-oxadiazol-2-yl)amino)azetidin-1-yl)phenyl)piperidine-2,6-dione] are at least 7.00 and above 80%.
`Cc1ccc(-c2nnc(NC3CN(c4cc(F)c(C5CCC(=O)NC5=O)c(F)c4)C3)o2)cc1` (centres unmarked) [Compound 99, 3-(2,6-difluoro-4-(3-((5-(p-tolyl)-1,3,4-oxadiazol-2-yl)amino)azetidin-1-yl)phenyl)piperidine-2,6-dione]: the negative-log Ki (pKi) at CRBN-DDB1 was 6.00 to 7.00. At CDK2, the Dmax was above 80%.
For `O=C1CCC(c2c(F)cc(N3CC(Nc4nnc(Cc5ccccc5)o4)C3)cc2F)C(=O)N1` (centres unmarked) [Compound 100, 3-(4-(3-((5-benzyl-1,3,4-oxadiazol-2-yl)amino)azetidin-1-yl)-2,6-difluorophenyl)piperidine-2,6-dione] the same measures were at least 7.00 and 50 to 80%.
As for `CC1(Nc2nnc(C3CC4(CCC4)C3)o2)CN(c2cc(F)c(C3CCC(=O)NC3=O)c(F)c2)C1` (centres unmarked) [Compound 101, 3-(2,6-difluoro-4-(3-methyl-3-((5-(spiro[3.3]heptan-2-yl)-1,3,4-oxadiazol-2-yl)amino)azetidin-1-yl)phenyl)piperidine-2,6-dione], on CRBN-DDB1, the pKi was at least 7.00. Also, the Dmax on CDK2 fell in the range of 50 to 80%.
Regarding `O=C1CCC(c2c(Cl)cc(N3CC(Nc4nnc(C5CC6(CCC6)C5)o4)C3)cc2Cl)C(=O)N1` (centres unmarked) [Compound 102, 3-(2,6-dichloro-4-(3-((5-(spiro[3.3]heptan-2-yl)-1,3,4-oxadiazol-2-yl)amino)azetidin-1-yl)phenyl)piperidine-2,6-dione], the pKi on CRBN-DDB1 was at least 7.00. Besides, the Dmax at CDK2 was above 80%.
The corresponding values for `O=C1CCC(c2c(F)cc(N3CC(Nc4nnc(-c5ccc(OC(F)(F)F)cc5)o4)C3)cc2F)C(=O)N1` (centres unmarked) [Compound 103, 3-(2,6-difluoro-4-(3-((5-(4-(trifluoromethoxy)phenyl)-1,3,4-oxadiazol-2-yl)amino)azetidin-1-yl)phenyl)piperidine-2,6-dione] are at least 7.00 and above 80%.
Regarding `O=C1CCC(c2c(F)cc(N3CC(Nc4nnc(-c5ccccc5)o4)C3)cc2F)C(=O)N1` (centres unmarked) [Compound 104, 3-(2,6-difluoro-4-(3-((5-phenyl-1,3,4-oxadiazol-2-yl)amino)azetidin-1-yl)phenyl)piperidine-2,6-dione], at CRBN-DDB1, the pKi was at least 7.00. The same compound came in with a Dmax on CDK2 above 80%.
The corresponding values for `O=C1CCC(c2c(F)cc(N3CC(Nc4ncn(C5CC6(CCC6)C5)n4)C3)cc2F)C(=O)N1` (centres unmarked) [Compound 105, 3-(2,6-difluoro-4-(3-((1-(spiro[3.3]heptan-2-yl)-1H-1,2,4-triazol-3-yl)amino)azetidin-1-yl)phenyl)piperidine-2,6-dione] are 6.00 to 7.00 and 50 to 80%.
The corresponding values for `O=C1CCC(c2c(F)cc(N3CC(Nc4cc(C5CC6(CCC6)C5)ccn4)C3)cc2F)C(=O)N1` (centres unmarked) [Compound 106, 3-(2,6-difluoro-4-(3-((4-(spiro[3.3]heptan-2-yl)pyridin-2-yl)amino)azetidin-1-yl)phenyl)piperidine-2,6-dione] are at least 7.00 and 50 to 80%.
`O=C1CCC(c2c(F)cc(N3CC(Nc4nnc(C5CC6(CCC6)C5)o4)C3)cc2F)C(=O)N1` (centres unmarked) [Compound 107, 3-(2,6-difluoro-4-(3-((5-(spiro[3.3]heptan-2-yl)-1,3,4-oxadiazol-2-yl)amino)azetidin-1-yl)phenyl)piperidine-2,6-dione] showed a pKi on CRBN-DDB1 of at least 7.00. The compound further gave a Dmax on CDK2 above 80%.
`CN(C(=O)N1CC(OC(=S)NC2CN(c3cc(F)c(C4CCC(=O)NC4=O)c(F)c3)C2)C1)C1CC1` (centres unmarked) [Compound 108, O-(1-(cyclopropyl(methyl)carbamoyl)azetidin-3-yl) (1-(4-(2,6-dioxopiperidin-3-yl)-3,5-difluorophenyl)azetidin-3-yl)carbamothioate] showed a negative logarithm of the Ki (pKi) on CRBN-DDB1 of at least 7.00. The Dmax at CDK2 was above 80%.
`Cc1ccc(N(C)C(=O)N2CC(OC(=O)NC3CN(c4cc(F)c(C5CCC(=O)NC5=O)c(F)c4)C3)C2)cn1` (centres unmarked) [Compound 109, 1-(methyl (6-methylpyridin-3-yl)carbamoyl) azetidin-3-yl (1-(4-(2,6-dioxopiperidin-3-yl)-3,5-difluorophenyl)azetidin-3-yl) carbamate] had a pKi at CRBN-DDB1 of at least 7.00. The Dmax on CDK2 fell in the range of 10 to 50%.
In the case of `Cc1ccc(N(C)C(=O)N2CC(OC(=O)NC3CN(c4cc(F)c(C5CCC(=O)NC5=O)c(F)c4)C3)C2)nc1` (centres unmarked) [Compound 110, 1-(methyl (5-methylpyridin-2-yl)carbamoyl) azetidin-3-yl (1-(4-(2,6-dioxopiperidin-3-yl)-3,5-difluorophenyl)azetidin-3-yl) carbamate], the negative-log Ki (pKi) at CRBN-DDB1 was at least 7.00. Also, the Dmax on CDK2 was in the range of 10 to 50%.

As a reminder, the pKi is −log10 of the Ki, conventionally taken in molar units. Lower therefore signals a large Ki. By Dmax is commonly meant the largest share of the target that was removed. Read a high Dmax as deep degradation.

The values above are taken from US20250263395A1, “COMPOUNDS THAT MEDIATE PROTEIN DEGRADATION AND METHODS OF USE THEREOF” (Monte Rosa Therapeutics AG, priority 2022, published 2025).
